This note sets out measurements from patent publication US20240269306A1, “B7H4-TARGETED ANTIBODY-DRUG CONJUGATES AND METHODS OF USE THEREOF” (Mersana Therapeutics, Inc., priority 2021, published 2024).

Where a chain is given by its changes, count along the chain named. “And” between values parts separate entries of the source, which are not always exact repeats. Equal entries are not always repeated. Where only a bound is given, the exact number is not on record here.

For assay [1], the system named is STING pathway in THP1-Dual cells co-cultured with MX-1 cancer cells. The experiment in a line: STING activation, cancer cell/THP1-IRF3-Luciferase reporter cell co-culture assay (Example 36). The conditions noted are these: 24 hours, concentrations based on payload, read-out: THP1-Dual cells/MX-1 co-cultures EC50. A general note: Reporter assays use an easily measured gene product as a stand-in for the process of interest.
Procedure: The induction of the STING pathway in immune cells by B7-H4-targeted STING agonist conjugates was evaluated by a cancer cell/THP1-IRF3-Luciferase reporter cell co-culture assay. MX-1 cells were seeded in 96-well CellBind surface tissue culture plates (17,000 cells/well) and allowed to attach for 4 hours in RPMI-1640 medium with 10% FBS and 1% penicillin/streptomycin. […] THP1-Dual™ Cells (InvivoGen) (50,000 cells) were then added to each well and the incubation continued for 24 hours at 37° C. in a humidified atmosphere of 5% CO2. Cell culture supernatants (20 μL) from each incubated sample was added to resuspended QUANTI-Luc (InvivoGen) (50 μL) and the luminescent signal was measured immediately using a SpectraMax M5 plate reader (Molecular Devices). The EC50 values were determined from the dose response curve.

Assay [2] deals with MX-1 cells. The experiment in a line: Cell surface binding of STING agonist conjugates by FACS, MX-1 cells (Example 35). The arrangement: species or system human. The conditions noted are these: Table 14. On the technique in general: A flow cytometer gives signals particle by particle.
Procedure: (§2) MX-1 cells were grown in DMEM:F12K (Life Technologies) with 10% FBS (Life Technologies) and 1% penicillin/streptomycin (Life Technologies). […] For staining, cells were detached by treatment with Accutase cell detachment solution (Innovative Cell Technologies). The detached cells were triturated in media, and plated in 96 well U-bottom plates, at a density of 50,000 cells in medium (75 μL). […] The cells were washed with ice cold PBS (3×), pelleted at 1,000×RCF between each wash step, and resuspended in RPMI-1640 with 2% goat serum (100 μL) and a secondary fluorescently labeled antibody, Alexa Fluor® 647-labelled goat anti-human IgG (5 μg/mL, Life Technologies) for 1 hour on ice. The cells were washed with ice cold PBS (3×) and resuspended in ice cold PBS with 1% paraformaldehyde (100 μL). The fluorescence per cell was determined by analyzing 5,000 cells for each treatment on the flow cytometer. The median fluorescence value for each treatment was plotted, and EC50 values were calculated with Graphpad Prism software by four-parameter curve fitting.
For assay [3], the system named is HEK-293 cells stably transfected with human B7-H4. The experiment in a line: Cell surface binding by FACS, HEK-293-B7-H4 cells (Example 32). The conditions noted are these: mean of two replicate experiments.
Procedure: as §2
(§3) HEK-293-B7-H4 cells were grown in EMEM (ATCC), 10% FBS, 1% penicillin/streptomycin, and 3 μg/ml puromycin (Life Technologies) and untransfected HEK-293 cells were grown in EMEM, 10% FBS, 1% penicillin/streptomycin. […] Results are mean values for two replicate experiments for each test article.
The target in assay [4] is T1, human B7-H4 (Homo sapiens, UniProt Q7Z7D3).
T1 construct: purchased R&D Systems 6576-B7-050
T1 sequence (Q7Z7D3 25-282): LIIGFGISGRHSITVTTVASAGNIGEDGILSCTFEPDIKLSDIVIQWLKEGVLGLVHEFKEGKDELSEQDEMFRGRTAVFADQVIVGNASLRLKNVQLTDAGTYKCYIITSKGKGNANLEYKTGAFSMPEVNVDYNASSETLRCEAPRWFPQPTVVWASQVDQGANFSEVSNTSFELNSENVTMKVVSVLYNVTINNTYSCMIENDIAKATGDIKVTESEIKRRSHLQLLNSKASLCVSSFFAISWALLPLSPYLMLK
The experiment in a line: ELISA binding of STING agonist conjugates to recombinant human B7-H4 protein (Example 34). The settings on record: Table 13. A general note: An ELISA detects its analyte on a solid surface through an enzyme-linked reagent.
Procedure: (§4) Recombinant human B7-H4 protein (R&D Systems #6576-B7-050) was coated onto the surface of each well of a 96-well plate by incubation with the peptide (1 μg/mL in PBS), overnight at 4° C. The wells were then blocked by incubation with BSA (5% in PBS, containing 0.1% Tween 20 (PBST)) for 1 hour at room temperature. […] The unbound test article was removed by washing with PBST (3×). A secondary anti-human IgG conjugated to HRP (0.16 μg/mL in PBST) was incubated in each well for 1 hour. The unbound secondary antibody was removed by washing with PBST (3×). The HRP substrate, TMB, was added to each well and incubated until a blue color was visible. The reaction was quenched by the addition of sulfuric acid (0.2 N, 100 μL). […] The values were plotted using GraphPad Prism software. EC50 values were determined by four-parameter curve fitting.

For assay [5], the system named is HEK-293-B7-H4 cells cocultured with CTV-labeled CD3+ T cells. The experiment in a line: T-cell suppression coculture assay with HEK-293-B7-H4 cells (Example 27). The settings on record: HEK-293-B7-H4 coculture; antibody 50 nM; 4 day; mean ± SD; two lines of values. The format is cell-based, human. The method, then:
(§1) Next day, the media was removed and replaced with T cell media (Iscove's Modified Dulbecco's Medium with 10% FBS and 5% penicillin/streptomycin). […] Frozen human PBMCs (2.5×10^7 cells) were thawed and enriched for CD3+ T cells using Easy Step™ human T cell isolation kit (StemCell Technologies). CD3+ T cells were labeled with CellTrace™ Violet cell proliferation kit (CTV; ThermoFisher Scientific) and adjusted to 2×10^6 cells/mL. CTV-labeled T cells (1×10^5) were added to test article-treated HEK-293-WT or HEK-293-B7-H4 cells, stimulated with Immunocult™ Human CD3/CD28 T Cell Activator (StemCell Technologies), and incubated at 37° C. in 5% CO2. After 4 day of coculture of HEK-293-WT or HEK-293-B7-H4 with CTV-labeled T cells, T cell proliferation was assessed by the dilution of CTV-labeled T cells using flow cytometry. Cocultured cells (CTV-labeled T cells and HEK-293-WT/HEK-293-B7-H4 cells) from each group were transferred to a U-bottom 96-well plate, washed with PBS, stained with live/dead Fixable Aqua dead cell staining dye (ThermoFisher Scientific), and then additionally stained with fluorophore conjugated target specific or isotype control antibodies (FITC anti-human CD45, PE/Cy7 anti-human CD4, PE anti-human CD8). Cells were fixed and surface expression of the proteins of interest was determined by flow cytometry analysis on a MACSQuant flow cytometer. Data analysis was performed by FlowJo software using the following hierarchical flow: 1) single gate, 2) live cells, 3) CD45+ cells, and 4) diluted CTV (compared to unstimulated T cells). Percentage of proliferating CD4+ or CD8+ T cell were calculated using CD4+ combined with diluted CTV and CD8+ combined with diluted CTV, respectively. Data represent the mean (±standard deviation) of triplicate wells for each test article. Table 6 gives the population (%) of live cells, CD45+, proliferating CD4+ T cells, and proliferating CD8+ T cells for each condition.

The target in the next assay is T2, mouse B7-H4 (Mus musculus, UniProt Q7TSP5).
T2 construct: purchased Creative Biomart VTCN1-1519R
T2 sequence (Q7TSP5 25-257): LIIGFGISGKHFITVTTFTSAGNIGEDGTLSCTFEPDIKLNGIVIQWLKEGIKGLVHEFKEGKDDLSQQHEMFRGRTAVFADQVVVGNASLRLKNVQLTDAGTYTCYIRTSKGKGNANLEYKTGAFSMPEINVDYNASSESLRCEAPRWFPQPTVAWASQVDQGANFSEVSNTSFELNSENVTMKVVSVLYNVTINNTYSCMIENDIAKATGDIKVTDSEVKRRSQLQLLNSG
The experiment in a line: ELISA binding to mouse B7-H4 (Example 30). The conditions noted are these: mean of two studies.

Assay [6] deals with MX-1 cells. The experiment in a line: Cell surface binding by FACS, MX-1 cells (Example 32). Also noted: species or system human. The settings on record: mean of two replicate experiments.
Procedure: as §2, §3
The target of the next assay is monkey B7-H4. The experiment in a line: ELISA binding to monkey B7-H4 (Example 30). The conditions noted are these: mean of two studies.
Assay [7] has as its target T1, human B7-H4. The experiment in a line: ELISA binding of variant B7-H4 cytotoxic drug conjugates to B7-H4 protein (Example 28). The settings on record: Table 7.
Procedure: as §4
In assay [8] the target is T1, human B7-H4. The experiment in a line: ELISA binding of XMT-1603 and XMT-1604 cytotoxic drug conjugates to human B7-H4 protein (Example 29). The conditions noted are these: Table 8.
Procedure: as §4
Assay [9] has as its target T1, human B7-H4. The experiment in a line: ELISA binding to human B7-H4 (Example 30). The conditions noted are these: mean of two studies.
Procedure: as §4
(§5) Proteins used in these studies were: human B7-H4 (R&D Systems; 6576-B7-050), monkey B7-H4 (Creative Biomart; VTCN1-1519R), rat (R&D Systems 10085-B7), and mouse (Creative Biomart; VTCN1-1519R).
Assay [10] concerns untransfected HEK-293 cells. The experiment in a line: Cell surface binding by FACS, untransfected HEK-293 cells (Example 32). The conditions noted are these: mean of two replicate experiments.
Procedure: as §2, §3
The next assay has as its target T3, rat B7-H4 (Rattus norvegicus, UniProt Q501W4).
T3 construct: purchased R&D Systems 10085-B7
T3 sequence (Q501W4 25-257): T2 sequence (Q7TSP5 25-257) with R109H, Q228E
The experiment in a line: ELISA binding to rat B7-H4 (Example 30). The settings on record: mean of two studies.

Assay [11] has as its system HEK-293-WT cells cocultured with CTV-labeled CD3+ T cells. The experiment in a line: T-cell suppression coculture assay with HEK-293-WT cells (Example 27). The format is cell-based, human. The settings on record: HEK-293-WT coculture, antibody 50 nM, 4 day. On the procedure:
as §1

Procedure for monkey B7-H4: as §4, §5
Procedure for mouse B7-H4: as §4, §5
Procedure for rat B7-H4: as §4, §5

With `Cc1ccc2c(=O)c3cccc(CC(=O)O)c3oc2c1C` [STING agonist], the EC50 in [1] was above 0.1 µM.
As to Palivizumab, the EC50 was above 0.2 µM in the assay on MX-1 cells [2]; above 0.1 µM in assay [3]; above 0.1 µM with human B7-H4 [4]; above 0.1 µM in the assay with mouse B7-H4; above 0.1 µM in the assay on MX-1 cells [6]; above 0.1 µM at monkey B7-H4. Also, the EC50 (with human B7-H4 [7]; with human B7-H4 [8]; in the assay with human B7-H4 [9]; in assay [10]; with rat B7-H4) was above 0.1 µM in each case. Besides, the “% Population CD45+ (gated on live cells)” value in assay [5] was 48.3 ± 4.1% and 50.1 ± 3.7%; in assay [11] (mean ± SD, two lines of values) it was 69.0 ± 5.1% and 43.0 ± 11.0%. Moreover, the “% Population Live cells (gated on single)” value in assay [5] was 80.1 ± 2.0% and 95.5 ± 2.8%; in assay [11] (mean ± SD of triplicate wells, two unexplained lines of values per population) it was 78.2 ± 0.4% and 85.6 ± 11.2%. Moreover, the “% Population Proliferating CD8+ (gated on single/live cells/CD45+)” value in [5] is 3.4 ± 0.5% and 1.1 ± 0.6%; in assay [11] (mean ± SD, two lines of values), 9.5 ± 1.6% and 3.5 ± 0.8%. For the same compound, the “% Population Proliferating CD4+ (gated on single/live cells/CD45+)” value in assay [11] (mean ± SD, two lines of values) is 32.9 ± 2.6% and 22.4 ± 2.3%.
